“Also recorded” adds a separate entry of the source. Starred links: 1 amine or outer side, 2 acyl side, 3 side chain; linkers in the order of their positions; H or OH if unused. Positions of bridges follow the written chain, without caps; N, C: chain ends. Non-standard residues stand in square brackets, D forms with d. Residues, ends and D or L forms follow the SMILES beside them. Chains are numbered I, II in the order given. Actinocin(9to1) = Cc1c2oc3c(C)ccc(C(=O)[*:1])c3nc-2c(C(=O)[*:2])c(N)c1=O; NMeV = CN[C@H](C(=O)O)C(C)C; Sar = CNCC(=O)O
Key:
[1] = system: eyeblink/nictitating membrane conditioned responses (CRs); infusion into dorsal anterior IN; assay: Eyeblink conditioning after drug infusion into the interpositus nucleus (IN); format: in vivo, New Zealand White male rabbits (Oryctolagus cuniculus)
Procedure: Rabbits underwent eyeblink training 30 min. after infusion of 1 ng of actinomycin D (ActD) or artificial cerebrospinal fluid (ACSF) into the dorsal anterior IN ipsilateral to the trained eye. Rabbits were trained with 10 paired tone-air trials per day to insure that ActD could act during learning (see Methods). […] Most animals in the experimental group reached criterion after 5 days of additional training without drug infusion.
New Zealand White male rabbits (Oryctolagus cuniculus), weighing between 2 and 3 kg were individually housed at the University of Southern California Hedco Neuroscience Building vivariunm with a 12-hr light and dark cycle. The experiment was conducted during the light phase of the cycle. Rabbits had ad lib access to food and water.
(§1) Stainless steel guide cannulas (25 ga) were implanted in the head of the animals with the tip fixed at 1.5 to 2.0 mm dorsal to the IN ipsilateral to the eye to be trained (left) (stereotaxic coordinates from lambda: 0.8 mm anterior, 5.2 mm lateral, and 14.0 mm ventral). Each guide cannula was filled with an inner stainless steel stylet designed to keep the guide cannula patent. Animals were given 5 days to recover from surgery. At infusion the stylet was removed and an inner cannula (31 ga) was inserted to the target locus. Delivery of fluids through the inner cannula was accomplished by a 10 μl Hamilton syringe driven by a syringe pump. Fluids were delivered to the target area at a rate of 0.38 μl per min for 2.6 min. For the experimental group, 1 ng of ActD (in 1 μl of vehicle) was infused daily 30 min prior to the start of each training session for 5 days (n=7). […] The animals were given 2 days rest and then trained for 5 more days without drug infusion. At training day 11, the experimental group was treated with 1 μg muscimol which is known to reversibly inactivate the IN (Krupa and Thompson, 1997). For the control group, 1 μl of ACSF (vehicle) was infused into the IN for 5 days (n=5). At day 6, control animals were infused with 1 ng of ActD 30 min prior to training. On training day 7, 1 μg of muscimol was infused.
For the infusion experiments, all animals were subjected to eye-blink conditioning under the delay paradigm. The rabbits were allowed one day (1 hour) of habituation to the restrainer and the behavioral recording chamber. On the following day, paired tone-airpuff training began. For each day, the training session began 30 min post drug infusion and we gave only 10 trials/day (instead of the standard 100 trials per day, see below) in order to maximize the possibility that ActD was acting on the learning process before the long term memory had been well established. The tone CS was a 350 ms, 1000 Hz., 85 dB tone and the airpuff US was a 100 ms puff of air (3 psi at the source) delivered to the rabbit's cornea, the CS and US coterminating. The mean intertrial interval (ITI) was 60±10 sec. Nictitating membrane (NNI) conditioned responses (CRs) were measured using a minitorque potentiometer attached to a small loop of monofilament nylon thread on the NM of the rabbit's left, eye. Output of the potentiometer was digitized and recorded by computer. A conditioned response was defined as any NM extension response greater than 0.5 mm that occurred after tone onset but before airpuff onset. The intra- and intertrial timing, stimulus presentations, data collection and analysis were performed by a PC with a program written in Forth and machine language (Lavond and Steinmetz, 1989b).

IN tissue = assay: Pilot dose studies of ActD infusion into the IN (tissue damage); format: in vivo, New Zealand White male rabbits (Oryctolagus cuniculus); conditions: e.g. 5 ng, infused into IN
Text: as §1, with “For the experimental group, 1 ng of ActD (in 1 μl of vehicle) was infused daily 30 min prior to the start of each training session for 5 days (n=7).” left out

eyeblink conditioning = conditions: infusion into the IN, rabbit (Bracha and Bloedel, 1996); cited from earlier work

Cc1c2oc3c(C)ccc(C(=O)N[C@@H]4C(=O)N[C@H](C(C)C)C(=O)N5CCC[C@H]5C(=O)N(C)CC(=O)N(C)[C@@H](C(C)C)C(=O)O[C@@H]4C)c3nc-2c(C(=O)N[C@@H]2C(=O)N[C@H](C(C)C)C(=O)N3CCC[C@H]3C(=O)N(C)CC(=O)N(C)[C@@H](C(C)C)C(=O)O[C@@H]2C)c(N)c1=O [ActD, actinomycin D] (I: T[dV]P[Sar][NMeV] / II: T[dV]P[Sar][NMeV]; ester I:1-I:C, II:1-II:C; linker I:N-II:N via Actinocin(9to1))
Acquisition of conditioned responses (CRs) during 5 days of training ([1]; 1 ng infused into IN daily 30 min before training, 5 days, 10 paired CS-US trials per day, n=7, vs ACSF): low levels of CRs; also recorded: completely prevents learning; also recorded: inhibited eyeblink conditioning | Expression of already acquired CRs ([1]; 1 ng infused into IN on day 6 in control animals conditioned under ACSF (n=5)): did not prevent expression of acquired CRs; also recorded: no effect on the performance of CRs | CRs on training without drug after ActD treatment (reversibility) ([1]; experimental group, 2 days rest, then training days 6-10 without drug infusion): gradual increase of CRs | Tissue damage at higher doses (IN tissue): caused permanent damage to the tissue

COc1ccc(C[C@H]2NC[C@H](O)[C@H]2OC(C)=O)cc1 [anisomycin]
Effect on eyeblink conditioning (eyeblink conditioning): interfered with conditioning

NCc1cc(=O)[nH]o1 [muscimol]
Expression of CRs, experimental group day 11 ([1]; 1 μg infused into IN at day 11, experimental group after retraining): completely abolished the expression of CRs | Expression of CRs, control group day 7 ([1]; 1 μg infused into IN on day 7, conditioned control animals): completely abolished the CRs

— US6664086B2, “cDNA, genomic, and predicted protein sequences of learning-induced kinases” (priority 1998, dated 2003)
